Experimental data reported in patent publication US10829473B2, “Modulators of the cystic fibrosis transmembrane conductance regulator protein and methods of use” (AbbVie Overseas S.Á.R.L., priority 2017, dated 2020).
Like-named read-outs stand apart in the source and are kept apart here.

Biological target: T1, F508delCFTR (Homo sapiens, UniProt P13569, DEL508-508)
T1 construct: expressed in transfected cells; host or cells: CFBE41o- human lung derived epithelial cells (CFBE41o-F508delCFTR-HRP), doxycycline-inducible
Assay: Cell Surface Expression-Horse Radish Peroxidase (CSE-HRP) Assay;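 as to EC50 (with co-corrector): co-corrector chromenyl benzoic acid corrector at 2 or 3 µM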;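 as to Maximum % activity (without co-corrector): % of on-plate positive control chromenyl benzoic acid corrector at 2 or 3 µM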
Assay type: cell-based
Settings: for Maximum % activity (with co-corrector) / Emax: maximum at any tested concentration; for Emax: read-out: Maximum % activity (without co-corrector)
Outline: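 Corrector compounds were given as 8-point 3-fold series from 20 or 30 μM, with or without a 2 μM co-corrector, for 18-24 h at 33 °C. Surface HRP was read by luminol luminescence as % of positive control; variable-Hill-slope sigmoidal fitting gave EC50 from triplicate plates.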

[1] = test compound alone, without co-corrector, read-out: EC50 (without co-corrector)
[2] = with co-corrector, read-out: EC50 (with co-corrector)

T1 sequence (P13569 with tags, fused parts or gaps DEL508-508): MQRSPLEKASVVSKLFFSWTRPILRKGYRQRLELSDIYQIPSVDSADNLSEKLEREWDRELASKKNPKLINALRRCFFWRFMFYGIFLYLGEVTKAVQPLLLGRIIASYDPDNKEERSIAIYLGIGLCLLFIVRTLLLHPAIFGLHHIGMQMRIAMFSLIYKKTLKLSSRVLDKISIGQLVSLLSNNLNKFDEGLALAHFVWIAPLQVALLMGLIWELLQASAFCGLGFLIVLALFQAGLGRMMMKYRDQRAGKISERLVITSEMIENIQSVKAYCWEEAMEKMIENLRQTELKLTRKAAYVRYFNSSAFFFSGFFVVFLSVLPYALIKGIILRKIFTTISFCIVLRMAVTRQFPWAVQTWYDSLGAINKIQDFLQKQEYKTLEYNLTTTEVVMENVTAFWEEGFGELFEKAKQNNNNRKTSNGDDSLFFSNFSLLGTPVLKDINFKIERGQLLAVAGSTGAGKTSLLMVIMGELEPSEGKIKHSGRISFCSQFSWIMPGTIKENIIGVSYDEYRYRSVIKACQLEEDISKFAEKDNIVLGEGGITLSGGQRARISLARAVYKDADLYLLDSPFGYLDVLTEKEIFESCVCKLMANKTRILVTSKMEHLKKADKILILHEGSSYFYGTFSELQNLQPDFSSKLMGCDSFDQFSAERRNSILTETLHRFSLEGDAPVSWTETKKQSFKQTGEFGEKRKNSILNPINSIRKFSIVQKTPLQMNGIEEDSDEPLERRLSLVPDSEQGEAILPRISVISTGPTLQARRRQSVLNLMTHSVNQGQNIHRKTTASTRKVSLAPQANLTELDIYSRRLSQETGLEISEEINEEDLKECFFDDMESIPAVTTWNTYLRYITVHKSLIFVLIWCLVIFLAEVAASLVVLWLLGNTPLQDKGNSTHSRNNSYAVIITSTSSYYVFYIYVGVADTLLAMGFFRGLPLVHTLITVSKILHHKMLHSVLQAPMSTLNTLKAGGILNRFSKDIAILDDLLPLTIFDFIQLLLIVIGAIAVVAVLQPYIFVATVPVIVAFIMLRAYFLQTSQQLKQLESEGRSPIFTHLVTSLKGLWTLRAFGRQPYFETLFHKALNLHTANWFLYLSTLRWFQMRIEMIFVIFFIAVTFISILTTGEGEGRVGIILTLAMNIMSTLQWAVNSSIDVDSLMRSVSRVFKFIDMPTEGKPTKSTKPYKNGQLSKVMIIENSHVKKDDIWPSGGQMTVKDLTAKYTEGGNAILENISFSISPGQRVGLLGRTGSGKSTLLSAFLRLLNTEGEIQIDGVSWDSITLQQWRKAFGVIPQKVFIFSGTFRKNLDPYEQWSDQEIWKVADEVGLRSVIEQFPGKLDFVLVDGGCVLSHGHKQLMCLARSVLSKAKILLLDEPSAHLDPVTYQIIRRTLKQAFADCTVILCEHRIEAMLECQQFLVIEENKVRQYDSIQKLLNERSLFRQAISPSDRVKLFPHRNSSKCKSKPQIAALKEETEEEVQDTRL

| Structure (SMILES) | EC50 [1] [µM] | Maximum % activity (with co-corrector) (with co-corrector) | EC50 [2] [µM] | Emax (without co-corrector) [%] |
| --- | --- | --- | --- | --- |
| COc1ccc(C)c(C)c1C1(C(=O)NS(=O)(=O)c2cccc3nc(C)ccc23)CC1 [II-51] | < 3 | +++ (≥350) | < 3 | > 150 |
| COc1ccc(C2CC2)c(C)c1C1(C(=O)NS(=O)(=O)c2cccc3nc(C)ccc23)CC1 [II-52] | < 3 | +++ (≥350) | < 3 | > 150 |
| COc1cccc(C)c1C1(C(=O)NS(=O)(=O)c2cccc3c2CCCN3)CC1 [II-53] | 3 to 10 | +++ (≥350) | < 3 | > 150 |
| COc1ccc(Cl)c(OC)c1C1(C(=O)NS(=O)(=O)c2cccc3ncccc23)CC1 [II-54] | < 3 | +++ (≥350) | < 3 | > 150 |
| COc1cccc(C2(C(=O)NS(=O)(=O)c3cccc4ncccc34)CC2)c1 [II-56] | 3 to 10 | +++ (≥350) | 3 to 10 | > 150 |
| COc1ccc(C2CC2)cc1C1(C(=O)NS(=O)(=O)c2cccc3ncccc23)CC1 [II-57] |  | +++ (≥350) |  | > 150 |
| COc1ccc(C2CC2)cc1C1(C(=O)NS(=O)(=O)c2cccc3nc(C)ccc23)CC1 [II-60] |  | +++ (≥350) |  | > 150 |
| Cc1ccc(C)c(C2(C(=O)NS(=O)(=O)c3cccc4ncccc34)CC2)c1 [II-61] | < 3 | +++ (≥350) | < 3 | > 150 |
| COc1cc(C)ccc1C1(C(=O)NS(=O)(=O)c2cccc3ncccc23)CC1 [II-63] | < 3 | +++ (≥350) | < 3 | > 150 |
| COc1c(C)cccc1C1(C(=O)NS(=O)(=O)c2cccc3ncccc23)CC1 [II-64] | 3 to 10 | +++ (≥350) | < 3 | > 150 |
| COc1cc(C2CCC2)cc(OC)c1C1(C(=O)NS(=O)(=O)c2cccc3c2ccn3C)CC1 [II-65] | < 3 | +++ (≥350) | < 3 | > 150 |
| COc1cc(C2CCC2)cc(OC)c1C1(C(=O)NS(=O)(=O)c2cccc3ccn(C)c23)CC1 [II-66] | < 3 | +++ (≥350) | < 3 | > 150 |
| COc1cc(C2CCC2)cc(OC)c1C1(C(=O)NS(=O)(=O)c2cccc3cnn(C)c23)CC1 [II-67] | < 3 | +++ (≥350) | < 3 | > 150 |
| COc1cc(C2CCC2)cc(OC)c1C1(C(=O)NS(=O)(=O)c2cccn3nccc23)CC1 [II-68] | 3 to 10 | +++ (≥350) | < 3 | > 150 |
| COc1cc(C2CCC2)cc(OC)c1C1(C(=O)NS(=O)(=O)c2cccc3nc(C)ccc23)CC1 [II-69] | < 3 | +++ (≥350) | < 3 | > 150 |
| COc1cc(C2CCC2)cc(OC)c1C1(C(=O)NS(=O)(=O)c2cccc3nc(N)ccc23)CC1 [II-70] | < 3 | +++ (≥350) | < 3 | > 150 |
| CCc1ccc(OC)c(C2(C(=O)NS(=O)(=O)c3cccc4nc(N)ccc34)CC2)c1 [II-71] | < 3 | +++ (≥350) | < 3 | > 150 |
| CCc1ccc(OC)c(C2(C(=O)NS(=O)(=O)c3cccc4[nH]ncc34)CC2)c1 [II-72] | < 3 | +++ (≥350) | < 3 | > 150 |

| Structure (SMILES) | EC50 [1] [µM] | Maximum % activity (with co-corrector) (with co-corrector) | EC50 [2] [µM] | Emax (without co-corrector) [%] |
| --- | --- | --- | --- | --- |
| CCOc1ccc(C)cc1C1(C(=O)NS(=O)(=O)c2cccc3[nH]ncc23)CC1 [II-74] | < 3 | +++ (≥350) | < 3 | > 150 |
| Cc1ccc(OC(C)C)c(C2(C(=O)NS(=O)(=O)c3cccc4[nH]ncc34)CC2)c1 [II-75] | < 3 | +++ (≥350) | < 3 | > 150 |
| COc1cc(C2CCC2)cc(OC)c1C1(C(=O)NS(=O)(=O)c2cccc3[nH]ncc23)CC1 [II-76] | 3 to 10 | +++ (≥350) | 3 to 10 | > 150 |
| COc1ccc(C)c(C)c1C1(C(=O)NS(=O)(=O)c2cccc3[nH]ncc23)CC1 [II-77] | < 3 | +++ (≥350) | < 3 | > 150 |
| COc1ccc(C2CC2)c(C)c1C1(C(=O)NS(=O)(=O)c2cccc3[nH]ncc23)CC1 [II-78] | < 3 | +++ (≥350) | < 3 | > 150 |
| Cc1ccc(OC(C)C)c(C2(C(=O)NS(=O)(=O)c3cccc4[nH]ccc34)CC2)c1 [II-79] | < 3 | +++ (≥350) | < 3 | > 150 |
| Cc1ccc(C)c(C2(C(=O)NS(=O)(=O)c3cccc4[nH]ccc34)CC2)c1 [II-80] | 3 to 10 | +++ (≥350) | < 3 | > 150 |
| COCC1(c2ccc(OC)c(C3(C(=O)NS(=O)(=O)c4cccc5nc(N)ccc45)CC3)c2)CC1 [II-82] | 3 to 10 | +++ (≥350) | < 3 | > 150 |
| CCOc1ccc(C)cc1C1(C(=O)NS(=O)(=O)c2cccc3nc(OC)ccc23)CC1 [II-83] | < 3 | +++ (≥350) | < 3 | > 150 |
| CCOc1ccc(C)cc1C1(C(=O)NS(=O)(=O)c2cccc3nc(NC)ccc23)CC1 [II-84] | < 3 | +++ (≥350) | < 3 | > 150 |
| CCOc1ccc(C)cc1C1(C(=O)NS(=O)(=O)c2cccc3[nH]ccc23)CC1 [II-85] | < 3 | +++ (≥350) | < 3 | > 150 |
| COc1ccc(C(OC)C(F)(F)F)cc1C1(C(=O)NS(=O)(=O)c2cccc3ncccc23)CC1 (centres unmarked) [II-86] | 3 to 10 | +++ (≥350) | < 3 | > 150 |
| COc1ccc(C(C)OC)cc1C1(C(=O)NS(=O)(=O)c2cccc3ncccc23)CC1 (centres unmarked) [II-87] | 3 to 10 | +++ (≥350) | < 3 | > 150 |
| COc1ccc(C(C)(C)OC)cc1C1(C(=O)NS(=O)(=O)c2cccc3[nH]ccc23)CC1 [II-88] | 3 to 10 | +++ (≥350) | < 3 | > 150 |
| COc1ccc(C2(C)COC2)cc1C1(C(=O)NS(=O)(=O)c2cccc3ncccc23)CC1 [II-89] | 3 to 10 | +++ (≥350) | 3 to 10 | > 150 |
| Cc1ccc(OC2COC2)c(C2(C(=O)NS(=O)(=O)c3cccc4nc(N)ccc34)CC2)c1 [II-90] | 3 to 10 | +++ (≥350) | 3 to 10 | > 150 |
| COc1cc(C2(C(=O)NS(=O)(=O)c3cccc4[nH]ncc34)CC2)c(OCC(C)C)cn1 [II-91] | 3 to 10 | +++ (≥350) | < 3 | > 150 |
| COC[C@H](C)Oc1ccc(C)cc1C1(C(=O)NS(=O)(=O)c2cccc3ncccc23)CC1 [II-92] | < 3 | +++ (≥350) | < 3 | > 150 |
